For the test, the target named is T1, Human MTHFD2 (Homo sapiens, UniProt P13995).
T1 construct: residues 36-350 in Uniport ID P13995; His6 (N); made in house; host or cells: E. coli
T1 sequence (P13995 36-350): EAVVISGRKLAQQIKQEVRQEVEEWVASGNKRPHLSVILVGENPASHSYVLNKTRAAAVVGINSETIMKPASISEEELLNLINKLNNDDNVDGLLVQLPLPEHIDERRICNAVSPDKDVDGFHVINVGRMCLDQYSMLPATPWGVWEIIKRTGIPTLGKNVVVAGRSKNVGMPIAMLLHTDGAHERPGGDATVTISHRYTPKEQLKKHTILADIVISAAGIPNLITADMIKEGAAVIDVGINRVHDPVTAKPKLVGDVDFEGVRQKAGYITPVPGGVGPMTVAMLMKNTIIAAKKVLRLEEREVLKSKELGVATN
Kind of test: MTHFD2 Activity Assay (dehydrogenase activity, diaphorase/resazurin coupled fluorescence). It is filed as biochemical. The note with it: inhibitory activity (IC50 and/or binding constant); 0.2 nM MTHFD2, 11 concentrations. The essentials: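 Steps: compound + 0.2 nM enzyme, 15 min, pH 8.0 Hepes buffer; add 70 μM CH2-THF, 1 mM NAD+, 100 μM resazurin, diaphorase; 30 min; quench with EDTA; read fluorescence. Data normalized to DMSO (100%) and no-enzyme (0%) wells.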
`COc1ccc2[nH]c(Cn3c(=O)c4c(nc(N[C@H]5CC[C@@H](O)C5)n4C)n(C)c3=O)cc2c1` [Example 182, 8-((1S,3R)-3-hydroxycyclopentylamino)-1-((5-methoxy-1H-indol-2-yl)methyl)-3,7-dimethyl-1H-purine-2,6(3H,7H)-dione]: the IC50 – broadly, the concentration that inhibits the measured activity by half – was in the range of 0.01 to 1 µM.

`COc1ccc2[nH]c(Cn3c(=O)c4c(nc(Nc5ccncc5)n4C)n(C)c3=O)cc2c1` [Example 183, 1-((5-methoxy-1H-indol-2-yl)methyl)-3,7-dimethyl-8-(pyridin-4-ylamino)-1H-purine-2,6(3H,7H)-dione] gave an IC50 of 0.01 to 1 µM.

`Cc1ccc2c(c1)cc(Cn1c(=O)c3c(nc(N[C@H]4CC[C@@H](O)C4)n3C)n(C)c1=O)n2C` [Example 185, 1-((1,5-dimethyl-1H-indol-2-yl)methyl)-8-((1S,3R)-3-hydroxycyclopentylamino)-3,7-dimethyl-1H-purine-2,6(3H,7H)-dione] returned an IC50 of 0.01 to 1 µM.

The molecule `COc1ccc2c(c1)cc(Cn1c(=O)c3c(nc(N[C@H]4CC[C@@H](O)C4)n3C)n(C)c1=O)n2C` [Example 188, 8-((1S,3R)-3-hydroxycyclopentylamino)-1-((5-methoxy-1-methyl-1H-indol-2-yl)methyl)-3,7-dimethyl-1H-purine-2,6(3H,7H)-dione] displayed an IC50 of 1 to 5 µM.

Regarding `Cn1c(Nc2cc[nH]c(=O)n2)nc2c1c(=O)n(Cc1cc3ccccc3[nH]1)c(=O)n2C` [Example 189, 1-((1H-indol-2-yl)methyl)-3,7-dimethyl-8-(2-oxo-1,2-dihydropyrimidin-4-ylamino)-1H-purine-2,6(3H,7H)-dione], the half-inhibitory concentration (IC50) lay within 0.01 to 1 µM.

In turn, `Cc1ccc2[nH]c(Cn3c(=O)c4c(nc(Nc5cc[nH]c(=O)n5)n4C)n(C)c3=O)cc2c1` [Example 190, 3,7-dimethyl-1-((5-methyl-1H-indol-2-yl)methyl)-8-(2-oxo-1,2-dihydropyrimidin-4-ylamino)-1H-purine-2,6(3H,7H)-dione] returned an IC50 of 0.01 to 1 µM.

Consider `Cn1c(N2CCC(O)CC2)nc2c1c(=O)n(Cc1cc3ccccc3[nH]1)c(=O)n2C` [Example 191, 1-((1H-indol-2-yl)methyl)-8-(4-hydroxypiperidin-1-yl)-3,7-dimethyl-1H-purine-2,6(3H,7H)-dione], for which the half-maximal inhibitory concentration (IC50) is 0.01 to 1 µM.

In the case of `Cn1c(N2CC(O)C2)nc2c1c(=O)n(Cc1cc3ccccc3[nH]1)c(=O)n2C` [Example 192, 1-((1H-indol-2-yl)methyl)-8-(3-hydroxyazetidin-1-yl)-3,7-dimethyl-1H-purine-2,6(3H,7H)-dione], the IC50 lay in the range of 1 to 5 µM.

In the case of `Cc1ccc2[nH]c(Cn3c(=O)c4c(nc(N5CCC(O)CC5)n4C)n(C)c3=O)cc2c1` [Example 193, 8-(4-hydroxypiperidin-1-yl)-3,7-dimethyl-1-((5-methyl-1H-indol-2-yl)methyl)-1H-purine-2,6(3H,7H)-dione], the IC50 lay within 0.01 to 1 µM.

For the molecule `Cc1ccc2[nH]c(Cn3c(=O)c4c(nc(N5CC(O)C5)n4C)n(C)c3=O)cc2c1` [Example 194, 8-(3-hydroxyazetidin-1-yl)-3,7-dimethyl-1-((5-methyl-1H-indol-2-yl)methyl)-1H-purine-2,6(3H,7H)-dione], the IC50 is 1 to 5 µM.

Turning to `Cn1c(Nc2ncn[nH]2)nc2c1c(=O)n(Cc1cc3ccccc3[nH]1)c(=O)n2C` [Example 195, 1-((1H-indol-2-yl)methyl)-8-(2H-1,2,4-triazol-3-ylamino)-3,7-dimethyl-1H-purine-2,6(3H,7H)-dione], the IC50 was 1 to 5 µM.

As for `Cn1c(Cn2c(=O)c3c(nc(N4CCC(O)CC4)n3C)n(C)c2=O)cc2cc(Cl)ccc21` [Example 196, 1-((5-chloro-1-methyl-1H-indol-2-yl)methyl)-8-(4-hydroxypiperidin-1-yl)-3,7-dimethyl-1H-purine-2,6(3H,7H)-dione], the 50% inhibitory concentration (IC50) lay in the range of 0.01 to 1 µM.

Take `Cn1c(Cn2c(=O)c3c(nc(N4CC(O)C4)n3C)n(C)c2=O)cc2cc(Cl)ccc21` [Example 197, 1-((5-chloro-1-methyl-1H-indol-2-yl)methyl)-8-(3-hydroxyazetidin-1-yl)-3,7-dimethyl-1H-purine-2,6(3H,7H)-dione]: the IC50 fell in the range of 0.01 to 1 µM.

The molecule `Cn1c(N2CCC(O)CC2)nc2c1c(=O)n(Cc1cc3cc(Cl)ccc3[nH]1)c(=O)n2C` [Example 198, 1-((5-chloro-1H-indol-2-yl)methyl)-8-(4-hydroxypiperidin-1-yl)-3,7-dimethyl-1H-purine-2,6(3H,7H)-dione] yielded an IC50 of 0.01 to 1 µM.

The molecule `Cn1c(N2CC(O)C2)nc2c1c(=O)n(Cc1cc3cc(Cl)ccc3[nH]1)c(=O)n2C` [Example 199, 1-((5-chloro-1H-indol-2-yl)methyl)-8-(3-hydroxyazetidin-1-yl)-3,7-dimethyl-1H-purine-2,6(3H,7H)-dione] had an IC50 of 1 to 5 µM.

`Cn1c(Nc2cccnn2)nc2c1c(=O)n(Cc1cc3cc(Cl)ccc3[nH]1)c(=O)n2C` [Example 200, 1-((5-chloro-1H-indol-2-yl)methyl)-3,7-dimethyl-8-(pyridazin-3-ylamino)-1H-purine-2,6(3H,7H)-dione]: the IC50 lay within 1 to 5 µM.

On to `Cn1c(Nc2cccnn2)nc2c1c(=O)n(Cc1cc3ccccc3[nH]1)c(=O)n2C` [Example 201, 1-((1H-indol-2-yl)methyl)-3,7-dimethyl-8-(pyridazin-3-ylamino)-1H-purine-2,6(3H,7H)-dione], for which the half-inhibitory concentration (IC50) is 0.01 to 1 µM.

Consider `Cc1ccc2[nH]c(Cn3c(=O)c4c(nc(Nc5ncn[nH]5)n4C)n(C)c3=O)cc2c1` [Example 202, 8-(1H-1,2,4-triazol-5-ylamino)-3,7-dimethyl-1-((5-methyl-1H-indol-2-yl)methyl)-1H-purine-2,6(3H,7H)-dione], for which the half-maximal inhibitory concentration (IC50) is 1 to 5 µM.

`Cn1c(Cn2c(=O)c3c(nc(Nc4cccnn4)n3C)n(C)c2=O)cc2cc(Cl)ccc21` [Example 203, 1-((5-chloro-1-methyl-1H-indol-2-yl)methyl)-3,7-dimethyl-8-(pyridazin-3-ylamino)-1H-purine-2,6(3H,7H)-dione] registered an IC50 of 5 to 10 µM.

In turn, `Cn1c(Cn2c(=O)c3c(nc(Nc4ccncn4)n3C)n(C)c2=O)cc2cc(Cl)ccc21` [Example 204, 1-((5-chloro-1-methyl-1H-indol-2-yl)methyl)-3,7-dimethyl-8-(pyrimidin-4-ylamino)-1H-purine-2,6(3H,7H)-dione] displayed an IC50 of 0.01 to 1 µM.

`Cc1ccc2[nH]c(Cn3c(=O)c4c(nc(Nc5ccncn5)n4C)n(C)c3=O)cc2c1` [Example 205, 3,7-dimethyl-1-((5-methyl-1H-indol-2-yl)methyl)-8-(pyrimidin-4-ylamino)-1H-purine-2,6(3H,7H)-dione] had a concentration for half-maximal inhibition (IC50) of 0.01 to 1 µM.

Regarding `Cn1c(Nc2cc[nH]c(=O)n2)nc2c1c(=O)n(Cc1cc3cc(Cl)ccc3[nH]1)c(=O)n2C` [Example 206, 1-((5-chloro-1H-indol-2-yl)methyl)-3,7-dimethyl-8-(2-oxo-1,2-dihydropyrimidin-4-ylamino)-1H-purine-2,6(3H,7H)-dione], the IC50 lay in the range of 0.01 to 1 µM.

Consider `Cn1c(Nc2ncn[nH]2)nc2c1c(=O)n(Cc1cc3cc(Cl)ccc3[nH]1)c(=O)n2C` [Example 207, 8-(1H-1,2,4-triazol-5-ylamino)-1-((5-chloro-1H-indol-2-yl)methyl)-3,7-dimethyl-1H-purine-2,6(3H,7H)-dione], for which the IC50 fell in the range of 1 to 5 µM.

`Cn1c(Nc2ccncn2)nc2c1c(=O)n(Cc1cc3cc(Cl)ccc3[nH]1)c(=O)n2C` [Example 208, 1-((5-chloro-1H-indol-2-yl)methyl)-3,7-dimethyl-8-(pyrimidin-4-ylamino)-1H-purine-2,6(3H,7H)-dione] yielded an IC50 of 0.01 to 1 µM.

With `Cc1ccc2[nH]c(Cn3c(=O)c4c(nc(CCO)n4C)n(C)c3=O)cc2c1` [Example 210, 8-(2-hydroxyethyl)-3,7-dimethyl-1-((5-methyl-1H-indol-2-yl)methyl)-1H-purine-2,6(3H,7H)-dione], the IC50 fell in the range of 1 to 5 µM.

Consider `Cn1c(CCO)nc2c1c(=O)n(Cc1cc3ccccc3[nH]1)c(=O)n2C` [Example 212, 1-((1H-indol-2-yl)methyl)-8-(2-hydroxyethyl)-3,7-dimethyl-1H-purine-2,6(3H,7H)-dione], for which the IC50 lay within 1 to 5 µM.

On to `Cn1c(N[C@H]2CCCNC2=O)nc2c1c(=O)n(Cc1cc3ccccc3[nH]1)c(=O)n2C` [Example 213, (S)-1-((1H-indol-2-yl)methyl)-3,7-dimethyl-8-(2-oxopiperidin-3-ylamino)-1H-purine-2,6(3H,7H)-dione], for which the IC50 lay in the range of 0.01 to 1 µM.

The molecule `Cn1c(Nc2ccncn2)nc2c1c(=O)n(Cc1cc3ccccc3[nH]1)c(=O)n2C` [Example 216, 1-((1H-indol-2-yl)methyl)-3,7-dimethyl-8-(pyrimidin-4-ylamino)-1H-purine-2,6(3H,7H)-dione] registered an IC50 of 0.01 to 1 µM.

Take `Cn1c(-n2nccc2N)nc2c1c(=O)n(Cc1cc3ccccc3[nH]1)c(=O)n2C` [Example 217, 1-((1H-indol-2-yl)methyl)-8-(5-amino-1H-pyrazol-1-yl)-3,7-dimethyl-1H-purine-2,6(3H,7H)-dione]: the IC50 fell in the range of 0.01 to 1 µM.

Regarding `Cc1ccc2[nH]c(Cn3c(=O)c4c(nc(-n5nccc5N)n4C)n(C)c3=O)cc2c1` [Example 218, 8-(5-amino-1H-pyrazol-1-yl)-3,7-dimethyl-1-((5-methyl-1H-indol-2-yl)methyl)-1H-purine-2,6(3H,7H)-dione], the half-maximal inhibitory concentration (IC50) was in the range of 0.01 to 1 µM.

`Cn1c(-n2nccc2N)nc2c1c(=O)n(Cc1cc3cc(Cl)ccc3[nH]1)c(=O)n2C` [Example 219, 8-(5-amino-1H-pyrazol-1-yl)-1-((5-chloro-1H-indol-2-yl)methyl)-3,7-dimethyl-1H-purine-2,6(3H,7H)-dione] registered an IC50 of 0.01 to 1 µM.

For the origin of these results see patent US12187728B2 (Raze Therapeutics, Inc., priority 2015, dated 2025).
